{"source": "patent US7767664B2", "about": "“Plant growth regulation” (Bayer CropScience AG, priority 2004, dated 2010)", "key": {"[1]": {"system": "maize (Zea mays, variety “LORENZO”)", "test": "Root growth assay, maize seed treatment", "type": "in vivo", "settings": "Root Growth of 100 is set as the standard, wet root weight 16 days post treatment", "source_text": "Plant roots are a highly proliferative tissue that allows an easy accessible, cheap and short term screening method for plant growth regulators. […] By using this root assay one is enabled to determine the effect of a seed treatment to root growth and/or germination and/or changes in habitat of germinated plants in order to identify the possible use as a yield enhancer. Two seeds of wheat (Triticum aestivum, variety “TRISO”) or 1 seed of maize (Zea mays, variety “LORENZO”) per hole in a plastic tray which contains an architecture of 8×13 holes were placed on compost soil covered with sand. […] Six replicates in a row of each compound and concentration were done. The outer rim of the above defined plastic tray was untreated to avoid false negative effects and the middle row (No. 7) was used as untreated control. The treated seeds were allowed to dry for approx. 4 hours and subsequently covered with sand and watered. The trays were stored in climate chambers with 14 hours lighting at a temperature of 24° C. (±2) at daytime and 16° C. (±2) at night and relative humidity (rH) of 60% and daily watered. Assessments were done 16 (±2) days post treatment by counting the germinated plants and assessing the phytotoxicity symptoms and percentage. In addition, the roots were washed out and the shoots were cut directly above the seed and the wet roots were placed on dry paper towels for approximately 30 minutes and weighted afterwards. This procedure provides a similar grade of moisture to the roots so that a comparison of the weights is possible."}, "[2]": {"system": "wheat (Triticum aestivum, variety “TRISO”)", "test": "Root growth assay, wheat seed treatment", "type": "in vivo", "settings": "Root Growth of 100 is set as the standard, wet root weight 16 days post treatment", "source_text": "Plant roots are a highly proliferative tissue that allows an easy accessible, cheap and short term screening method for plant growth regulators. The results obtained can easily be transferred to the overall effects on a plant of plant growth regulators identified by such a system. By using this root assay one is enabled to determine the effect of a seed treatment to root growth and/or germination and/or changes in habitat of germinated plants in order to identify the possible use as a yield enhancer. Two seeds of wheat (Triticum aestivum, variety “TRISO”) or 1 seed of maize (Zea mays, variety “LORENZO”) per hole in a plastic tray which contains an architecture of 8×13 holes were placed on compost soil covered with sand. These seeds were treated with 100 μl/hole, which creates an application volume of approx. 1200 l/ha, of a compound solution at active ingredient rates equivalent to 100, 10 and 1 g a.i./ha of each compound using an robotic application system (Lizzy Spray Robotics). Six replicates in a row of each compound and concentration were done. The outer rim of the above defined plastic tray was untreated to avoid false negative effects and the middle row (No. 7) was used as untreated control. The treated seeds were allowed to dry for approx. 4 hours and subsequently covered with sand and watered. The trays were stored in climate chambers with 14 hours lighting at a temperature of 24° C. (±2) at daytime and 16° C. (±2) at night and relative humidity (rH) of 60% and daily watered. Assessments were done 16 (±2) days post treatment by counting the germinated plants and assessing the phytotoxicity symptoms and percentage. In addition, the roots were washed out and the shoots were cut directly above the seed and the wet roots were placed on dry paper towels for approximately 30 minutes and weighted afterwards. This procedure provides a similar grade of moisture to the roots so that a comparison of the weights is possible.\nThe effects observed concerning Root Growth given in column 2 (Root Growth of “100” is set as the standard) are directed to concentrations that are equivalent to 100, 10, 1 g a.i./ha, each."}}, "data": [{"smiles": "O=C1CCC(=O)c2ccccc2N1", "note": "[Compound 3.1]", "values": [{"measurement": "Root Growth", "setting": "[1]; 1 g a.i./ha", "result": 86}, {"measurement": "Root Growth", "setting": "[1]; 10 g a.i./ha", "result": 150}, {"measurement": "Root Growth", "setting": "[1]; 100 g a.i./ha", "result": 86}, {"measurement": "Root Growth", "setting": "[2]; 1 g a.i./ha", "result": 98}, {"measurement": "Root Growth", "setting": "[2]; 10 g a.i./ha", "result": 125}, {"measurement": "Root Growth", "setting": "[2]; 100 g a.i./ha", "result": 135}]}, {"smiles": "COc1cc2c(cc1OC)C(=O)CCC(=O)N2", "note": "[Compound 3.2, 7,8-Dimethoxy-1H-benzazepine-2,5 (3H, 4H)-dione]", "values": [{"measurement": "Root Growth", "setting": "[1]; 1 g a.i./ha", "result": 96}, {"measurement": "Root Growth", "setting": "[1]; 10 g a.i./ha", "result": 89}, {"measurement": "Root Growth", "setting": "[1]; 100 g a.i./ha", "result": 123}, {"measurement": "Root Growth", "setting": "[2]; 1 g a.i./ha", "result": 133}, {"measurement": "Root Growth", "setting": "[2]; 10 g a.i./ha", "result": 131}, {"measurement": "Root Growth", "setting": "[2]; 100 g a.i./ha", "result": 98}]}, {"smiles": "O=C1CCC(=O)c2cc(Cl)ccc2N1", "note": "[Compound 3.4]", "values": [{"measurement": "Root Growth", "setting": "[1]; 1 g a.i./ha", "result": 85}, {"measurement": "Root Growth", "setting": "[1]; 10 g a.i./ha", "result": 121}, {"measurement": "Root Growth", "setting": "[1]; 100 g a.i./ha", "result": 144}, {"measurement": "Root Growth", "setting": "[2]; 1 g a.i./ha", "result": 125}, {"measurement": "Root Growth", "setting": "[2]; 10 g a.i./ha", "result": 126}, {"measurement": "Root Growth", "setting": "[2]; 100 g a.i./ha", "result": 195}]}, {"smiles": "O=C1CCC(=NNc2cc(Cl)cc(Cl)c2)c2cc(Br)ccc2N1", "note": "[Compound 4.1]", "values": [{"measurement": "Root Growth", "setting": "[1]; 1 g a.i./ha", "result": 131}, {"measurement": "Root Growth", "setting": "[1]; 10 g a.i./ha", "result": 102}, {"measurement": "Root Growth", "setting": "[1]; 100 g a.i./ha", "result": 136}]}, {"smiles": "CCNC(=S)NN=C1CCC(=O)Nc2cc(OC)c(OC)cc21", "note": "[Compound 4.5]", "values": [{"measurement": "Root Growth", "setting": "[2]; 1 g a.i./ha", "result": 149}, {"measurement": "Root Growth", "setting": "[2]; 10 g a.i./ha", "result": 106}, {"measurement": "Root Growth", "setting": "[2]; 100 g a.i./ha", "result": 79}]}]}
